{"source": "patent US20260373229A1", "about": "“TOPICALLY APPLICABLE PREPARATION FOR IMPROVING SKIN CONDITION” (priority 2022, published 2026)", "key": {"[1]": {"tested_on": "Staphylococcus aureus", "test": "Minimum inhibitory concentration / antimicrobial activity against Staphylococcus aureus in vitro", "type": "cell-based", "conditions": "for minimum inhibitory concentration (MIC): Staphylococcus aureus"}, "[2]": {"tested_on": "C. acnes DSM1897", "test": "Growth of C. acnes DSM1897 in microtiter plates (OD600, anaerobic, 5 days)", "type": "cell-based, Cutibacterium acnes (Propionibacterium acnes)", "description": "The effect of the preparations according to the invention on the growth of C. acnes, S. aureus and S. epidermidis was investigated in in vitro studies.\nC. acnes DSM1897 was incubated under anaerobic conditions at 37 °C. The overnight culture was diluted 1:1000 in Caso medium (casein peptone 17 g/l; soybean meal peptone 3 g/l; sodium chloride 5 g/l; glucose 2.5 g/l; dipotassium hydrogen phosphate 2.5 g/l; pH 7.3±0.2) and seeded in microtiter plates. Different concentrations of the plant extract Glycyrrhiza inflata and licochalcone A (1 μg/ml, 2 μg/ml) were added, mixed and incubated anaerobically at 37 °C for 5 days. […] The optical density (OD) was measured photometrically at a wavelength of 600 nm (OD600) to estimate the growth of the bacteria. […]\nUnless otherwise stated, the quantities refer to the weight of the compound per volume of medium, e.g. 1 μg/ml means 1 μg licochalcone A in 1 ml medium. The percentage quantities of ISW1-2 refer to the weight of ISW1-2 in relation to the total weight of the respective test preparation.\nC. acnes 1897 was incubated without ISW1-2 (FIG. 1 shaded) and with a non-inhibitory concentration of 0.00001% ISW1-2 (FIG. 1 black), wherein different concentrations of licochalcone A Extract (0 μg/ml=control; 1 μg/ml; 2 μg/ml) were added. Bacterial growth or inhibition is measured by the increase/reduction of turbidity in the medium (OD600). […]"}, "[3]": {"tested_on": "S. aureus DSM20231", "test": "Growth of S. aureus DSM20231 in microtiter plates (OD600, aerobic, 24 h)", "type": "cell-based, Staphylococcus aureus", "conditions": "for synergistic effect with ISW1-2 on S. aureus growth: with 0.00002% ISW1-2, FIGS. 3 to 10", "description": "(§1) S. aureus DSM20231 and S. epidermidis ATTC12228 were incubated under aerobic conditions at 37 °C with constant shaking. The overnight cultures were diluted 1:10000 in MHB (Müller Hinton Broth: starch 1.5 g/l; meat infusion 2.0 g/l; peptone from casein (hydrolyzed) 17.5 g/l; pH: 7.4±0.2) and seeded in microtiter plates. […] These experiments were repeated in the presence of a non-inhibitory ISW1-2 concentration (0.00002% ISW1-2). To estimate bacterial growth, the optical density (OD) was measured photometrically at a wavelength of 600 nm (OD600). Increasing values indicate bacterial growth (mean value from three independent experiments).\nStaphylococcus aureus DSM20231 was incubated without ISW1-2 (FIGS. 3, 5, 7, 9) and with a non-inhibitory concentration of 0.00002% ISW1-2 (FIGS. 4, 6, 8, 10), wherein different concentrations of licochalcone Extract; licochalcone A; licochalcone C and licochalcone E (0 μg/ml=control; 1 μg/ml; 2 μg/ml) were present. FIGS. 3 to 10 show the bacterial growth over 24 hours under the different conditions (mean values from three independent experiments).\n(§2) Bacterial growth is measured by the increase in turbidity in the medium (OD600), i.e. an increase in OD over time indicates bacterial growth.\nFIGS. 7 and 8 show the studies with ISW1-2 and licochalcone C. Four different amounts of licochalcone C were used (0%, control; 1 μg/ml; 2 μg/ml and 4 μg/ml), alone (FIG. 7) and with 0.00002% ISW1-2 (FIG. 8).\nFIGS. 9 and 10 show the studies with ISW1-2 and licochalcone E. Three different amounts of licochalcone E were used (0%, control; 1 μg/ml; 2 μg/ml), alone (FIG. 9) and with 0.00002% ISW1-2 (FIG. 10)."}, "[4]": {"tested_on": "S. epidermidis ATTC12228", "test": "Growth of S. epidermidis 12228 in microtiter plates (OD600, aerobic, 24 h)", "type": "cell-based, Staphylococcus epidermidis", "conditions": "for effect on growth of S. epidermidis (OD600): 1 μg/ml, 2 μg/ml, without ISW1-2, 24 h, FIGS. 11, 13, 15, 17", "description": "as §1\nIn further comparative studies, the influence of the combination of compounds according to the invention was also determined on skin commensal germs, such as S. epidermidis (FIGS. 11 to 18).\nFor this purpose, Staphylococcus epidermidis 12228 was incubated without ISW1-2 (FIGS. 11, 13, 15, 17) and with a non-inhibitory concentration of 0.00002% ISW1-2 (FIGS. 12, 14, 16, 18), wherein different concentrations of licochalcone extract; licochalcone A; licochalcone C and licochalcone E (0 μg/ml=control; 1 μg/ml; 2 μg/ml) were present. The bacterial growth over 24 h under the different conditions is shown (mean values from three independent experiments).\nas §2"}, "[5]": {"tested_on": "membrane potential of the bacteria"}, "[6]": {"tested_on": "innate immune response of the skin", "conditions": "in synergy with factors originating from the host and microbiome; cited from earlier work"}}, "data": [{"smiles": "CC(C)C[C@H]1NC(=O)[C@H](Cc2c[nH]c3ccccc23)NC(=O)[C@@H](C(C)C)NC(=O)[C@H]2NC(SC2(C)C)[C@H](C(C)C)NC(=O)[C@@H](Cc2c[nH]c3ccccc23)NC(=O)[C@H](C(C)C)NC1=O", "note": "[ISW1-2, cyclo [N-DVal-LTrp-DLeu-LVal-DTrp-LMe2Thz(LVal)-C]]", "values": [{"measurement": "sensitivity of skin pathogens such as Staphylococcus aureus", "setting": "[1]", "result": "particularly sensitive"}, {"measurement": "minimum inhibitory concentration (MIC)", "setting": "[1]", "result": 3.1, "unit": "µg/mL"}, {"measurement": "minimum inhibitory concentration (MIC)", "setting": "[1]; 3.1 μg/ml expressed in %", "result": 0.00031, "unit": "%"}, {"measurement": "growth inhibition of C. acnes (OD600)", "setting": "[2]; 0.00001% ISW1-2 alone, anaerobic, 37 °C, 5 days", "result": "non-inhibitory"}, {"measurement": "growth inhibition of S. aureus (OD600)", "setting": "[3]; 0.00002% ISW1-2 alone, 37 °C, 24 h", "result": "non-inhibitory"}, {"measurement": "growth inhibition of S. epidermidis (OD600)", "setting": "[4]; 0.00002% ISW1-2 alone, 24 h", "result": "non-inhibitory"}, {"measurement": "mechanism of action", "setting": "[5]; antibacterial effect", "result": "based on proton translocation while maintaining membrane integrity"}, {"measurement": "correlation of antibacterial effect with membrane potential drop", "setting": "[5]; bacteria", "result": "correlates strongly with the drop of the membrane potential of the bacteria"}, {"measurement": "effect on innate immune response of the skin", "setting": "[6]", "result": "supports the innate immune response of the skin"}]}, {"smiles": "COc1c(/C=C/C(=O)c2ccc(O)cc2)ccc(O)c1CC=C(C)C", "note": "[licochalcone C]", "values": [{"measurement": "synergistic effect with ISW1-2 on S. aureus growth", "setting": "[3]", "result": "somewhat less synergistically with ISW1-2 than licochalcone A"}, {"measurement": "effect on growth of S. epidermidis (OD600)", "setting": "[4]", "result": "No influence on the growth of S. epidermidis was observed"}]}, {"smiles": "C=C(C)[C@@H](C)c1cc(/C=C/C(=O)c2ccc(O)cc2)c(OC)cc1O", "note": "[licochalcone E]", "values": [{"measurement": "synergistic effect with ISW1-2 on S. aureus growth", "setting": "[3]", "result": "better synergistic effect with ISW1-2, similar to licochalcone A"}, {"measurement": "effect on growth of S. epidermidis (OD600)", "setting": "[4]", "result": "No influence on the growth of S. epidermidis was observed"}]}, {"smiles": "C=CC(C)(C)c1cc(/C=C/C(=O)c2ccc(O)cc2)c(OC)cc1O", "note": "[licochalcone A]", "values": [{"measurement": "growth inhibition of C. acnes (OD600)", "setting": "[2]; pure extract or pure licochalcone A without ISW1-2, FIGS. 1 and 2", "result": "only a minor inhibitory effect"}, {"measurement": "effect on growth of S. epidermidis (OD600)", "setting": "[4]", "result": "No influence on the growth of S. epidermidis was observed"}]}]}
